Reference: patent US20250049747A1, “USE OF HYPERPOLARIZING AGENTS ALONE AND IN COMBINATION WITH OTHER THERAPEUTIC AGENTS FOR TREATING CANCERS INCLUDING GLIOBLASTOMA” (Trustees of Tufts College, priority 2021, published 2025)
Where “and” joins values, the source holds several entries; their conditions need not be identical. Identical values can stand only once.

Assays:
NG108-15 cells = assay: Automated patch-clamp electrophysiology, resting membrane potential; type: cell-based, mouse/rat; settings: NG108-15, immediately after application
Description: Electrophysiology. SyncroPatch 384PE platform (Nanion Technologies®) was used to perform the automated patch-clamp experiments. This system provides giga-ohm resistance seals during simultaneous recording in the 384-well plate format. Cells were harvested 48-72 h after seeding 1-2×10^6 cells in T175 culture flasks (Falcon), then cells were rinsed with PBS (5 mL) and treated with 3 mL Accutase ([…] technologies) for 5 min at 37° C., re-suspended in 10 mL of serum-free media and pelleted at 1000 rpm for 3 min at RT. […] The cells were kept until the moment of the experiment in a temperature controlled dedicated reservoir at 10° C. and shaken at 200 rpm as described. The experiments were performed within one hour after the harvesting process. The assays were carried in single-hole chips with resistances between 4-5 MΩ after priming the chip with the following solutions (in mM), physiological extracellular solution (pECS) 10 HEPES, 140 NaCl, 5 Glucose, 4 KCl, 2 CaCl2), 1 MgCl2, 295-305 mOsm pH 7.4 (NaOH). Internal recording solution (in mM) 20 EGTA, 50 KCl, 10 NaCl, 60 KF, 10 HEPES at pH 7.2, and 285 mOsm. 15 μL of the cell suspension (50% v/v pECS/Medium no serum) was added to each well to a final density of 50-80K cells/mL. Cell capture was promoted by holding a negative pressure of −100 mbar for 20 s. After successive hyperpolarization steps from −30 mV to −100 mV enhanced the capture the seal followed by the transient addition of a high Ca2+ extracellular solution (80 mM NaCl, 3 mM KCl, 35 mM CaCl2), 10 mM MgCl2, 10 mM HEPES at pH 7.4 and 298 mOsm. High Ca2+ solution is washed out by successive external exchanges replacing half of the volume of the well each time with the external recording solution. All recording solutions were prepared with ultrapure MilliQ water (18 MD-cm). After the formation of the Giga-seal, a 250 mbar pressure was applied to break the membrane patch. Once in whole-cell configuration, different voltage protocols were applied to dissect different conductances in NG108-15 cells. Signals were recorded in the current-clamp mode “I=0” (passive conditions) where no current was injected, to monitor the membrane potential. The membrane potentials were recorded for seven sweeps of 1 sec, with an inter-sweep time of 10 s. The average membrane potentials of the 7 sweeps were reported.
Electrophysiology of NG108-15 Cells Show Changes in Resting Membrane Potential Induced by Treatment. […] Untreated cells were patched, baseline measurements were taken and then the drugs were added and the changes in the cell Vmem were recorded.

U87 cells = assay: Antibody staining, BrdU and senescence assays in U87 cells; type: cell-based, human; settings: U87, 6 days
Description: Antibody Staining, BrdU and Senescence Assays. NG108-15 cells were plated on PEI and Matrigel coated plates at 15,000 or 30,000 cells/mL, U87 cells at 10,000 cells/mL and grown in imaging media for 6 days with drug treatment. Fresh media was added every 2 days. On day 6, cells were fixed with 4% formaldehyde in PBS for 30 minutes for all antibody staining, except for BrdU which was fixed for 15 minutes, and for the senescence assay which was fixed for 20 min using the Senescence Beta-Galactosidase Staining Kit (9860, CellSignaling) and thereafter stained according to manufacturer's protocol. After fixing, cells were washed twice with PBS, and were permeabilized in PBS with 0.3% Triton-X for 15 min then washed again twice with PBS. The cells for the BrdU assay were additionally treated with 1N HCl for 10 min on ice, followed by a treatment with 2N HCl for 50 min at room temp. Cells were then blocked with standard blocking buffer comprised of TBS containing 10% goat serum, 0.1% BSA, and with 0.05% Tween 20 or without detergent for antibodies against phosphorylated proteins or monoclonal antibodies except for Anti-YAP and Anti-BrdU staining, which were done according to manufacturer's protocol. […] Cells were imaged with an EVOS M7000 system, with at least 50% of each well in a 96 well plate imaged and analyzed using a CellProfiler pipeline for measuring integrated intensity, mean intensity, or nuclear to cytoplasmic ratio of mean intensities.

[1] = Reported clinical pharmacokinetics and blood-brain barrier penetrance (literature); settings: human, in vivo; pantoprazole 240 mg/day, if proportional to the 30 mg/day dose

Row | SMILES | change in resting membrane potential compared to control (NG108-15 cells) | NFM and NSE (U87 cells) | YAP nuclear to cytoplasmic ratio (U87 cells) | astrocytic differentiation markers (U87 cells) | Cmax [1]
1 | O=C(Nc1cc(C(F)(F)F)ccc1O)Nc1cc(C(F)(F)F)ccc1O [NS1643] | significantly hyperpolarized | – | – | – | –
2 | COc1ccnc(C[S+]([O-])c2nc3ccc(OC(F)F)cc3[nH]2)c1OC (stereo not drawn) [Pantoprazole, pantoprazole] | did not have an immediate effect | increased | not to have a significant effect | increased | 42000 ng/mL and ~110 µM
